This passage reports IC50 results from ChEMBL document CHEMBL1126718, “Potent in vitro and in vivo inhibitors of platelet aggregation based upon the Arg-Gly-Asp-Phe sequence of fibrinogen. A proposal on the nature of the binding interaction between the Arg-guanidine of RGDX mimetics and the platelet GP IIb-IIIa receptor” (J Med Chem, 1993).

The species named for experiment [1] is Canis familiaris. Briefly: In vitro inhibition of ADP-induced platelet aggregation in canine platelet rich plasma (PRP). Format: functional. The settings on record: Canis lupus familiaris.
Experiment [2] in a line: In vitro inhibition of ADP-induced platelet aggregation in human platelet rich plasma (PRP). In kind it is functional.
The species entered for experiment [3] is Canis familiaris. Kind of experiment: In vitro inhibition of ADP-induced platelet aggregation in canine platelet rich plasma (PRP); Inactive. In kind it is functional, Canis lupus familiaris.
Experiment [4] is described as follows: In vitro inhibition of ADP-induced platelet aggregation in platelet rich plasma (PRP). Format: functional.

Peptide text beside a SMILES is read from it.

In experiment [1], `N=C(N)c1ccc(CC(=O)CCC(=O)N[C@@H](CC(=O)O)C(=O)N[C@@H](Cc2ccccc2)C(=O)O)cc1` gave a half-maximal inhibitory concentration (IC50) of 0.18 µM. In other words, the sub-micromolar range. For the molecule `N=C(N)c1ccc(CCCCC(=O)N[C@@H](CC(=O)O)C(=O)N[C@@H](Cc2ccccc2)C(=O)O)cc1`, the figures for the IC50 in experiment [1] and in experiment [2] were 0.053 µM and 0.042 µM, respectively.

`N=C(N)c1ccc(CCCC(=O)N[C@@H](CC(=O)O)C(=O)N[C@@H](Cc2ccccc2)C(=O)O)cc1`: the IC50 entry in experiment [3] is “Not Active”.

For the molecule `N=C(N)c1ccc(/C=C/CCC(=O)N[C@@H](CC(=O)O)C(=O)N[C@@H](Cc2ccccc2)C(=O)O)cc1`, the IC50 in experiment [1] worked out at 0.082 µM; in experiment [2] it was 0.09 µM. Consider `N=C(N)c1ccc(C#CCCC(=O)N[C@@H](CC(=O)O)C(=O)N[C@@H](Cc2ccccc2)C(=O)O)cc1`, for which the IC50 worked out at 0.09 µM in experiment [1] and 0.12 µM in experiment [2].

With `N=C(N)c1cccc(/C=C/CCCC(=O)N[C@@H](CC(=O)O)C(=O)N[C@@H](Cc2ccccc2)C(=O)O)c1`, the IC50 stood at 4.3 µM in experiment [1] and 3.2 µM in experiment [2]. As to `N=C(N)c1cccc(CCCCCC(=O)N[C@@H](CC(=O)O)C(=O)N[C@@H](Cc2ccccc2)C(=O)O)c1`, in experiment [1], the IC50 is 5.8 µM.

Molecule `N=C(N)NCCC[C@H](N)C(=O)NCC(=O)N[C@@H](CC(=O)O)C(=O)N[C@@H](Cc1ccccc1)C(=O)O` (H-RGDF-OH) displayed an IC50 in experiment [4] of 90 µM.

A word on the IC50: it is the concentration that inhibits the measured activity by half. Read a low IC50 as inhibition by little substance.
